Laboratory results from PubChem BioAssay (NCI).
“And” between values parts separate entries of the source, which are not always exact repeats. Equal entries are not always repeated.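 Following 48 hours of exposure in 96-well plates, responses at five concentrations were used to interpolate endpoints linearly. GI50 is the concentration that inhibits growth by half. TGI: concentration producing complete growth inhibition.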

Legend:
Assay in all cases: inhibition of tumour cell growth, NCI panel, 48 h
ACHN renal = tested on: ACHN renal
T-47D breast = tested on: T-47D breast
UACC-257 melanoma = tested on: UACC-257 melanoma
U251 CNS = tested on: U251 CNS
EKVX NSCLC = tested on: EKVX NSCLC
SK-MEL-5 melanoma = tested on: SK-MEL-5 melanoma
CAKI-1 renal = tested on: CAKI-1 renal
HL-60(TB) leukemia = tested on: HL-60(TB) leukemia
NCI-H522 lung = tested on: NCI-H522 lung
OVCAR-5 ovarian = tested on: OVCAR-5 ovarian

Row | Compound | TGI (ACHN renal) [µM] | TGI (T-47D breast) | TGI (UACC-257 melanoma) | TGI (U251 CNS) [µM] | TGI (EKVX NSCLC) [µM] | TGI (SK-MEL-5 melanoma) | TGI (CAKI-1 renal) [µM] | TGI (HL-60(TB) leukemia) | TGI (NCI-H522 lung) | TGI (OVCAR-5 ovarian) [µM] | GI50 (HL-60(TB) leukemia) | GI50 (OVCAR-5 ovarian)
1 | O=C1N(c2ccccc2)N=C2c3ccncc3C3=NN(c4ccccc4)C(=O)C123 (configuration not stated) | > 100 | > 100 µM | > 100 µM | > 100 | > 100 | > 47 µM | > 100 | > 100 µM | > 100 µM | > 100 |  | 
2 | C=C(C)[C@H]1C=C[C@@H](OC(C)=O)[C@@]2(COC(C)=O)[C@H](OC(=O)CCC)[C@H]3[C@@H](OC(C)=O)[C@@H](C)C[C@]3(O)C(=O)[C@@](C)(OC(C)=O)[C@H]12 | > 100 | 89.7 µM | > 100 µM | > 100 | > 100 | > 100 µM | > 100 | > 100 µM | > 100 µM | > 100 |  | 
3 | O=C1C=C(NCCc2ccc(O)cc2)C(=O)C=C1NCCc1ccc(O)cc1 | > 100 | > 100 µM | > 100 µM | 92.5 | > 100 | > 100 µM | > 100 | 71.2 µM | > 100 µM | > 100 |  | 
4 | COc1ccc(/C=C2/C(=O)C(c3ccccc3)N(c3ccccc3)C2=O)cc1OC (configuration not stated) | > 10 | > 10 µM | > 10 µM | > 10 | > 10 | 0.307 µM | > 10 | > 10 µM | > 10 µM | > 10 |  | 
5 | COc1ccc(/C=C/C(=O)N[C@@H]2C(=O)N3[C@@H]2SC(C)(C)[C@@H]3C(=O)O)cc1OC | > 100 | > 100 µM | > 100 µM | > 100 | > 100 | > 100 µM | > 100 | > 100 µM | > 100 µM | > 100 |  | 
6 | O=c1oc2ccc([N+](=O)[O-])cc2cc1-c1csc(-c2ccccc2)n1 | > 100 | > 100 µM | > 100 µM | > 100 | > 100 | > 100 µM | > 100 | > 100 µM | > 100 µM | > 100 |  | 
7 | CCN(CC)C(=O)CCNC(C)Cc1c[nH]c2ccccc12 (configuration not stated) | > 100 | > 100 µM | > 100 µM | > 100 | > 100 | > 100 µM | > 100 | > 100 µM | > 100 µM | > 100 |  | 
8 | CC1(C)C/C=C\CCC(O)C(O)CCC(C)(C)C1=O (configuration not stated) | > 100 | > 100 µM | > 100 µM | > 100 | > 100 | > 100 µM | > 100 | > 100 µM | > 100 µM | > 100 |  | 
9 | FC(F)(F)c1ccc(N=NN2CCCC2)cc1 | > 100 | > 100 µM | > 100 µM | > 100 | > 100 | > 100 µM | > 100 | > 100 µM | > 100 µM | > 100 |  | 
10 | CNC(=S)c1nnsc1N | > 100 | > 100 µM | > 100 µM | > 100 | > 100 | > 100 µM | > 100 | 0.0686 µM | > 100 µM | > 100 |  | 
11 | Cc1cccc2c1CC1(Cc3c(C)cccc3C1=O)C2=O | > 100 | > 100 µM | > 100 µM | > 100 | > 100 | > 100 µM | > 100 | > 100 µM | > 100 µM | > 100 |  | 
12 | CCN(CC)CCCNc1c2cc(OC)ccc2nc2cccc([N+](=O)[O-])c12 | 0.306 | 0.618 µM | 0.416 µM | 0.432 | 0.446 | 0.238 µM | 0.673 | 0.511 µM | 0.0284 µM | 0.432 |  | 
13 | COc1ccc(C2=Nn3c(C)nnc3S/C2=C\c2ccc(-c3ccc([N+](=O)[O-])cc3)o2)cc1 | 25.3 | > 100 µM | 54.7 µM | 45.8 | 82.9 | 34.4 µM | 29.1 | 73.5 µM | 23.8 µM | 43 |  | 
14 | Cc1nc2c(ccc3[nH]c4ccccc4c32)s1 | > 100 | > 100 µM | > 100 µM | 54.3 | 69.1 | 29.6 µM | > 100 | > 100 µM | 35 µM | > 100 |  | 
15 | CC(=O)Oc1ccc(C2SCc3nc4ccccc4n32)cc1 (configuration not stated) | > 100 | > 100 µM | > 100 µM | > 100 | > 100 | > 100 µM | > 93.2 | 37.8 µM | 69.2 µM | > 100 |  | 
16 | O=C1OCC(CN2CCC(n3c(=O)[nH]c4ccccc43)CC2)=C1c1ccccc1 | 89.6 | 24.6 µM | 47.3 µM | > 100 | 57.1 | 28.9 µM | 51.4 | 40.7 µM | 46.5 µM | > 100 |  | 

Row | Compound | TGI (ACHN renal) [µM] | TGI (T-47D breast) | TGI (UACC-257 melanoma) | TGI (U251 CNS) [µM] | TGI (EKVX NSCLC) [µM] | TGI (SK-MEL-5 melanoma) | TGI (CAKI-1 renal) [µM] | TGI (HL-60(TB) leukemia) | TGI (NCI-H522 lung) | TGI (OVCAR-5 ovarian) [µM] | GI50 (HL-60(TB) leukemia) | GI50 (OVCAR-5 ovarian)
17 | FC1(F)SC2CCCCCCCCCCC2C1(F)F (configuration not stated) | 73.8 | > 100 µM | 69.8 µM | 63.6 | > 100 | > 100 µM | > 100 | 30.3 µM | 52.7 µM | > 100 |  | 
18 | CN(C)CCNc1nc2c(c(=O)n(C)c(=O)n2C)n1C | > 100 | > 100 µM | > 100 µM | > 100 | > 100 | > 100 µM | > 100 | > 100 µM | > 100 µM | > 100 |  | 
19 | O=[N+]([O-])C(=C(\Cl)NCCO)/C(Cl)=C(/Cl)Br | 8.9 | 3.84 µM | 4.4 µM | 6.27 | 10.4 | 7.3 µM | 1.85 | 2.48 µM | 2.88 µM | 13.4 |  | 
20 | NC(=O)NC(=O)c1cccc(C(=O)NC(N)=O)n1 | > 100 | > 100 µM | > 100 µM | > 100 | > 100 | > 100 µM | > 100 | > 100 µM | > 100 µM | > 100 |  | 
21 | CCOC(=O)CCNC(=O)c1cc(C)cc2c1Oc1c(cc(C)cc1C(=O)NCCC(=O)OCC)S2 | > 100 | > 100 µM | > 100 µM | > 100 | > 100 | > 100 µM | > 100 | > 100 µM | > 100 µM | > 100 |  | 
22 | CN(C)C=Nc1cccc2c1NSN2 | > 100 | > 100 µM | > 100 µM | > 100 | > 100 | > 100 µM | > 100 | > 100 µM | > 100 µM | > 100 |  | 
23 | COC(=O)/C=C/[C@H]1[C@H](C)N1S(=O)(=O)c1ccc(C)cc1 (some centres not stated) | > 100 | > 100 µM | > 100 µM | > 100 | > 100 | > 100 µM | > 100 | > 100 µM | > 100 µM | > 100 |  | 
24 | O=C1CN2CCN(CC2)CC(=O)Nc2ccc(cc2)S(=O)(=O)c2ccc(cc2)NC(=O)CN2CCN(CC2)CC(=O)Nc2ccc(cc2)S(=O)(=O)c2ccc(cc2)N1 | > 100 | > 100 µM | > 100 µM | > 94.3 | > 100 | > 100 µM | > 100 | > 100 µM | 22.1 µM | 67.7 |  | 
25 | CC(C)(C)OC(=O)/C=C/[C@@H](CCC(=O)/C=C/[C@H](/C=C\CCCC(=O)O)NC1(c2ccccc2)c2ccccc2-c2ccccc21)O[Si](C)(C)C(C)(C)C | 36.3 | 55.6 µM | 34.2 µM | 30.9 | 45.9 | 36.8 µM | 67.8 | 86.1 µM | 34.6 µM | 43.6 |  | 
26 | COc1ccc(-c2c(C#N)c(N)n(C3OC(COC(C)=O)C(OC(C)=O)C(OC(C)=O)C3OC(C)=O)c(=S)c2C#N)cc1 (configuration not stated) | > 100 | > 100 µM and 46.5 µM | > 100 µM and 44.5 µM | > 100 | > 100 | > 100 µM and 56.4 µM | > 100 | > 100 µM and 48.5 µM | > 100 µM and 52.6 µM | > 100 | > 100 µM and 27.9 µM | > 100 µM and 38.4 µM
27 | Cc1nc2ccccc2n1Cc1ccc(NC(=S)NC2CCCCC2)cc1 | 44.4 | > 82.3 µM | > 95.1 µM | > 100 | > 92.9 | > 51.4 µM | > 100 | > 100 µM | > 100 µM | > 100 |  | 
28 | O=C(Nc1ccccn1)c1cc2c(cc1Cl)Sc1nccn1S2(=O)=O | > 100 | 73.6 µM | > 100 µM | > 100 | 94.5 | 67.6 µM | > 100 | 74.3 µM | > 100 µM | > 100 |  | 
29 | CCOC1=NC(C(F)(F)F)(C(F)(F)F)N=C(/N=C(/N)N(C)C(C(C)C)P(=O)(OC(C)C)OC(C)C)O1 (configuration not stated) | > 100 | > 100 µM | > 100 µM | > 100 | > 100 | > 100 µM | > 100 | 80.1 µM | 93.3 µM | > 100 |  | 
30 | Cc1c(OCc2cccc3ccccc23)ccc2c(=O)cc(S)oc12 | > 100 | > 100 µM | > 100 µM | > 100 | > 100 | > 100 µM | > 100 | 59.7 µM | 89.4 µM | > 100 |  | 
31 | O=c1[nH]nc(-c2ccccc2)c2[nH]c3c(c12)CCCc1ccccc1-3 | 38.9 | 57.5 µM | 44.5 µM | 28 | > 100 | 26.5 µM | > 100 | 46.2 µM | 27.1 µM | 34.8 |  | 
32 | COC1=C2C[C@](OC)(C#CC=CC#CC2O)CC1(C)C (some centres not stated) | > 100 | > 100 µM | > 100 µM | > 100 | > 100 | > 100 µM | > 100 | > 100 µM | > 100 µM | > 100 |  | 
